Results: publication PMC5361215 (Scientific Reports, 2017)
The star is where a group is joined. X1 = CC(C)CCC[C@@H](C)[C@H]1CC[C@H]2[C@@H]3CC=C4C[C@@H](OC(=O)CCOCCOCCOCCOCCOCCOCCOCCOCCOCCOCCOCCOCCOCCOCCOCCOCCOCCOCCOCCOCCOCCOCCOCCOCCNC(=O)C*)CC[C@]4(C)[C@H]3CC[C@]12C; X2 = CC(C)CCC[C@@H](C)[C@H]1CC[C@H]2[C@@H]3CC=C4C[C@@H](OC(=O)CCOCCOCCOCCOCCNC(=O)C*)CC[C@]4(C)[C@H]3CC[C@]12C; X3 = CC(C)CCC[C@@H](C)[C@H]1CC[C@H]2[C@@H]3CC=C4C[C@@H](OC(=O)C*)CC[C@]4(C)[C@H]3CC[C@]12C

How the values were obtained:
Vero cells = conditions: for Cytotoxicity in monolayer culture CC50: 24 h
HPIV3 [1] = conditions: 24 h
HPIV3 [2] = format: cell-based
[3] = target: uncleaved HPIV3 F (K108G) (Human parainfluenza 3 virus, UniProt P06828, K108G); format: cell-based
NiV G/F mediated fusion = format: cell-based
RBCs = format: binding, human; conditions: pH 7.4; read-out: Apparent Kd towards RBCs
[4] = format: binding; conditions: read-out: Kd, dissociation constant for POPC monolayer
HPIV3 [5] = format: in vivo, cotton rats; conditions: n = 4
[6] = hamster, in vivo, ip, 2 mg/kg
NiV = test system: NiV; parameters: species or system Syrian golden hamsters (Mesocricetus auratus); conditions: hamster, in vivo, ip, 2 mg/kg
in vivo = conditions: female, Syrian golden, hamster, ip, 2 mg/kg
[7] = format: physicochemical; conditions: pH 7.4

Chain of uncleaved HPIV3 F (K108G) (P06828 19-539 K108G): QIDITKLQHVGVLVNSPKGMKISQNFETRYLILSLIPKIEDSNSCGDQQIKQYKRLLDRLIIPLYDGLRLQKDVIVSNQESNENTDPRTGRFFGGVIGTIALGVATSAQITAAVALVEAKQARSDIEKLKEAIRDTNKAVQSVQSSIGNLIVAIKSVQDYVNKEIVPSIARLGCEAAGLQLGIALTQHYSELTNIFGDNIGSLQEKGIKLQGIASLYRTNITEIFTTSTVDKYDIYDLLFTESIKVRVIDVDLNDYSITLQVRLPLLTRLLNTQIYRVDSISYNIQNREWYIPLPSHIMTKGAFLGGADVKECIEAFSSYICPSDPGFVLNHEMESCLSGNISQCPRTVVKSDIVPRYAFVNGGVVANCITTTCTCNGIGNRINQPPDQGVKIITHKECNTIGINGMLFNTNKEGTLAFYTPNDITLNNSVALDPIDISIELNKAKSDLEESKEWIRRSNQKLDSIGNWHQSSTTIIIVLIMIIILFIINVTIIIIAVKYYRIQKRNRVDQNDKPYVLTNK

Row | Compound | Cytotoxicity in monolayer culture CC50 (Vero cells) | IC50 (HPIV3 [1]) [nM] | IC90 (HPIV3 [1]) [nM] | Inhibition of HPIV3 infection in HAE at 1 μM (HPIV3 [2]) | Inhibition of HPIV3 infection in HAE at 10 μM (HPIV3 [2]) | RBCs irreversibly bound (peptide bridging) [3] | Kd (RBCs) [nM] | Kd [4] [nM] | Blue-shift of ANS emission on titration with peptide [7] [nm] | other results
1 | CC[C@H](C)[C@H](NC(=O)[C@H](C)NC(=O)[C@H](CC(N)=O)NC(=O)CNC(=O)[C@H](CC(C)C)NC(=O)[C@H](CC(N)=O)NC(=O)[C@@H](NC(=O)CNC(=O)[C@@H](NC(=O)[C@H](CC(=O)O)NC(=O)[C@H](CC(C)C)NC(=O)[C@H](CCCNC(=N)N)NC(=O)[C@H](CCC(=O)O)NC(=O)[C@H](CC(C)C)NC(=O)[C@H](CO)NC(=O)[C@@H](NC(=O)[C@@H]1CCCN1C(=O)[C@@H]1CCCN1C(C)=O)[C@@H](C)CC)C(C)C)[C@@H](C)O)C(=O)N[C@@H](C)C(=O)N[C@@H](CCCCN)C(=O)N[C@@H](CC(C)C)C(=O)N[C@@H](CCC(=O)O)C(=O)N[C@@H](CC(=O)O)C(=O)N[C@@H](C)C(=O)N[C@@H](CCCCN)C(=O)N[C@@H](CCC(=O)O)C(=O)N[C@@H](CC(C)C)C(=O)N[C@@H](CC(C)C)C(=O)N[C@@H](CCC(=O)O)C(=O)N[C@@H](CO)C(=O)N[C@@H](CO)C(=O)N[C@@H](CC(=O)O)C(=O)N[C@@H](CCC(N)=O)C(=O)N[C@H](C(=O)N[C@@H](CC(C)C)C(=O)N[C@@H](CCCNC(=N)N)C(=O)NCC(=O)N[C@@H](CO)C(=O)NCC(=O)N[C@@H](CO)C(=O)NCC(=O)N[C@@H](CSCC(=O)NCCOCCOCCOCCOCCOCCOCCOCCOCCOCCOCCOCCOCCOCCOCCOCCOCCOCCOCCOCCOCCOCCOCCOCCOCCC(=O)O[C@H]1CC[C@@]2(C)C(=CC[C@H]3[C@@H]4CC[C@H]([C@H](C)CCCC(C)C)[C@@]4(C)CC[C@@H]32)C1)C(N)=O)[C@@H](C)CC [HRCMV PEG 24 Chol, reference compound] | 2,000 nM | > 2000 | > 2000 | – | – | – | – | – | – | –
2 | Ac-C(X2)GSGSGVALDPIDISIVLNKAKSDLEESKEWIRRSNGKLDSI-NH2 [Chol-PEG4-VG] | >10,000 nM | – | 0.1 ± 0.0001 | only partial inhibition | no virus was produced at any time after infection | – | – | – | – | –
3 | Ac-C(X3)GSGSGVALDPIDISIVLNKAKSDLEESKEWIRRSNGKLDSI-NH2 [Chol-VG] | 9,000 nM | 0.06 ± 0.035 | 1.7 ± 0.42 | – | – | – | – | – | – | RBCs free (released) [3]: 80%; RBCs reversibly bound (HN-receptor engagement only) [3]: 20%; IC50 against NiV fusion (NiV G/F mediated fusion): too little effect to determine an IC50
4 | Ac-VALDPIDISIVLNKAKSDLEESKEWIRRSNGKLDSIGSGSGC(X1)-NH2 [VG-PEG24-Chol] | 1,300 nM | 0.007 ± 0.007 | 0.1 ± 0.0003 | complete inhibition of infection | no virus was produced at any time after infection | looks similar to VG-Chol | 330 | 77.6 ± 21.7 | 58 | Concentration at which toxicity on cells appears (Vero cells): 1000 nM; Viral load in cotton rat lungs (HPIV3 [5]): significantly decreased the viral load; Peptide in brain (immuno-histofluorescence) [6]: present in brain parenchyma; Peptide in urine [6]: No peptide was detected in the urine; Survival of hamsters given lethal NiV (NiV): significantly improved the survival; Cmax (in vivo): 120 nM; Protease degradation, temperature not given (trypsin): increased degradation significantly
5 | Ac-VALDPIDISIVLNKAKSDLEESKEWIRRSNGKLDSIGSGSGC(X2)-NH2 [VG-PEG4-Chol] | 4,500 nM | 0.03 ± 0.04 | 0.7 ± 0.007 | only partial inhibition | – | more than 50% | 440 | 67.9 ± 14.2 | 63 | Decrease of HPIV3 viral titer in HAE at day 2 after infection (HPIV3 [2]): approximately two logs; Decrease of HPIV3 viral titer in HAE at day 5 (HPIV3 [2]): approximately one log
6 | Ac-VALDPIDISIVLNKAKSDLEESKEWIRRSNGKLDSIGSGSGC(X3)-NH2 [VG-Chol] | 10,000 nM | 0.015 | 0.7 ± 0.26 | – | – | – | 540 | 62.3 ± 20.3 | 67 | –
